This is an account of results in ChEMBL document CHEMBL1649413, “Structure-activity relationship of 4(5)-aryl-2-amino-1H-imidazoles, N1-substituted 2-aminoimidazoles and imidazo[1,2-a]pyrimidinium salts as inhibitors of biofilm formation by Salmonella typhimurium and Pseudomonas aeruginosa” (J Med Chem, 2011).

The IC50 is the concentration needed to halve the response being measured.

The source made the active and inactive calls. No cut-off for these calls is given here.

The subject of the first assay is Salmonella typhimurium. In words: Antimicrobial activity against Salmonella Typhimurium ATCC 14028 assessed as inhibition of planktonic growth at 4 uM at 25 degC after 24 hrs. The format is functional, organism-based. The note with it: Salmonella enterica subsp. enterica serovar Typhimurium.
On to `CCCCCCCC[n+]1c(-c2ccc(F)c(F)c2)cn2cccnc21.[O-][Cl+3]([O-])([O-])[O-]`, for which the inhibition entry is “inactive”.
For the molecule `Nc1nc(-c2ccc(F)cc2)c(C(=O)Nc2ccccc2)[nH]1`, the inhibition entry is “inactive”.
Still for that read-out and setting: as for `CCCCCCCCCCCCCn1c(-c2ccccc2)cnc1N`, the entry is “inactive”; as for `CCCCCCCCCCCn1c(-c2ccc(Cl)cc2)cnc1N`, “inactive”.
On the same count and under the same terms, with `CCCCCCCCCCn1c(-c2ccccc2)cnc1N` the entry was “inactive”; with `CCCCCCCCCCn1c(-c2ccc(Cl)cc2)cnc1N`, “inactive”; with `CCCCCCCCn1c(-c2cccc3ccccc23)cnc1N`, “inactive”.
For `Nc1nc(-c2ccccc2)c(-c2ccc(C(F)(F)F)cc2)[nH]1`, the inhibition result was “inactive”.
Still for that read-out and setting: with `CCCCCCCCCCCn1c(-c2ccccc2)cnc1N` the entry was “inactive”; with `CCCCCCCCCn1c(-c2ccc(Cl)cc2)cnc1N`, “inactive”.
Regarding `CCCCCCCCCCCCn1c(-c2ccc(Cl)cc2)cnc1N`, the inhibition entry is “inactive”.
Same read-out and setting: as for `CCCCCCCCn1c(-c2ccc(-c3ccccc3)cc2)cnc1N`, the entry is “inactive”.
Turning to `CCCCCCCCn1c(-c2ccc(Cl)c(Cl)c2)cnc1N`, the inhibition result is “inactive”.
With `CCCCCCCC[n+]1c(-c2ccc(-c3ccc(-c4ccccc4)cc3)cc2)cn2cccnc21.[O-][Cl+3]([O-])([O-])[O-]`, the inhibition result is “inactive”.

The next assay has as its system Salmonella typhimurium. As to the kind of experiment: Antimicrobial activity against Salmonella Typhimurium ATCC 14028 assessed as inhibition of planktonic growth at 40 uM at 25 degC after 24 hrs. The format is functional, organism-based. The note with it: Salmonella enterica subsp. enterica serovar Typhimurium.
In the case of `Nc1ncc(-c2ccc(Cl)cc2)n1C1CCCCCCC1`, the inhibition entry is “Active”.
On the same count and under the same terms, with `Nc1nc(-c2ccc(F)cc2)c(C(=O)Nc2ccccc2)[nH]1` the entry was “inactive”; with `CCCCCCCCCCCCCn1c(-c2ccccc2)cnc1N`, “Active”.
Take `Nc1nc(-c2ccccc2)c(-c2ccc(C(F)(F)F)cc2)[nH]1`: the inhibition entry was “inactive”.
The same measure, in the same setting: with `CCCCCCCCCCCn1c(-c2ccccc2)cnc1N` the entry was “Active”; with `CCCCCCCCn1c(-c2ccc(-c3ccccc3)cc2)cnc1N`, “Active”.

A further assay deals with Pseudomonas aeruginosa. In words: Antimicrobial activity against Pseudomonas aeruginosa assessed as inhibition of planktonic growth at 20 uM at 25 degC after 24 hrs. The format is functional, organism-based.
Conditions: not given
As to `CCCCCCCC[n+]1c(-c2ccc(F)c(F)c2)cn2cccnc21.[O-][Cl+3]([O-])([O-])[O-]`, the inhibition result is “Active”.
The same measure, in the same setting: with `CCCCCCCCCCCCCn1c(-c2ccccc2)cnc1N` the entry was “inactive”; with `CCCCCCCCCCn1c(-c2ccccc2)cnc1N`, “inactive”.
On to `CCCCCCCCCCn1c(-c2ccc(Cl)cc2)cnc1N`, for which the inhibition entry is “inactive”.
Still for that read-out and setting: with `CCCCCCCCn1c(-c2cccc3ccccc23)cnc1N` the entry was “Active”.
With `CCCCCCCCCCCn1c(-c2ccccc2)cnc1N`, the inhibition entry is “inactive”.
Regarding `CCCCCCCCCn1c(-c2ccc(Cl)cc2)cnc1N`, the inhibition entry was “Active”.
Still for that read-out and setting: as for `CCCCCCCCn1c(-c2ccc(-c3ccccc3)cc2)cnc1N`, the entry is “inactive”.

Another assay concerns Salmonella typhimurium. In words: Antimicrobial activity against Salmonella Typhimurium ATCC 14028 assessed as inhibition of planktonic growth at 10 uM at 25 degC after 24 hrs. The format is functional, organism-based. The note with it: Salmonella enterica subsp. enterica serovar Typhimurium.
Turning to `CCCCCCCC[n+]1c(-c2ccc(F)c(F)c2)cn2cccnc21.[O-][Cl+3]([O-])([O-])[O-]`, the inhibition result was “Active”.
The same measure, in the same setting: as for `Nc1ncc(-c2ccc(Cl)cc2)n1C1CCCCCCC1`, the entry is “inactive”.
On the same count and under the same terms, as for `CCCCCCCCCCCCCn1c(-c2ccccc2)cnc1N`, the entry is “Active”.
In the case of `CCCCCCCCCCCn1c(-c2ccc(Cl)cc2)cnc1N`, the inhibition result is “Active”.
The same measure, in the same setting: as for `CCCCCCCCCCn1c(-c2ccccc2)cnc1N`, the entry is “Active”; as for `CCCCCCCCCCn1c(-c2ccc(Cl)cc2)cnc1N`, “Active”.
As to `CCCCCCCCn1c(-c2cccc3ccccc23)cnc1N`, the inhibition entry is “inactive”.
Regarding `CCCCCCCCCCCn1c(-c2ccccc2)cnc1N`, the inhibition entry is “Active”.
Same read-out and setting: as for `CCCCCCCCCn1c(-c2ccc(Cl)cc2)cnc1N`, the entry is “Active”.
For the molecule `CCCCCCCCCCCCn1c(-c2ccc(Cl)cc2)cnc1N`, the inhibition entry was “inactive”.
On the same count and under the same terms, with `CCCCCCCCn1c(-c2ccc(Cl)c(Cl)c2)cnc1N` the entry was “Active”.
As to `CCCCCCCC[n+]1c(-c2ccc(-c3ccc(-c4ccccc4)cc3)cc2)cn2cccnc21.[O-][Cl+3]([O-])([O-])[O-]`, the inhibition result is “Active”.

A further assay relates to Salmonella typhimurium. As to the kind of experiment: Antimicrobial activity against Salmonella Typhimurium ATCC 14028 assessed as inhibition of planktonic growth at 20 uM at 25 degC after 24 hrs. The format is functional, organism-based. The note with it: Salmonella enterica subsp. enterica serovar Typhimurium.
Consider `Nc1ncc(-c2ccc(Cl)cc2)n1C1CCCCCCC1`, for which the inhibition entry is “Active”.
For `CCCCCCCCCCCn1c(-c2ccc(Cl)cc2)cnc1N`, the inhibition entry is “Active”.
Consider `CCCCCCCCCCn1c(-c2ccccc2)cnc1N`, for which the inhibition result was “Active”.
Turning to `CCCCCCCCCn1c(-c2ccc(Cl)cc2)cnc1N`, the inhibition entry is “Active”.
On the same count and under the same terms, as for `CCCCCCCCCCCCn1c(-c2ccc(Cl)cc2)cnc1N`, the entry is “inactive”; as for `CCCCCCCCn1c(-c2ccc(-c3ccccc3)cc2)cnc1N`, “Active”.

The test system of a further assay is Salmonella typhimurium. In words: Antibiofilm activity in Salmonella Typhimurium ATCC 14028 assessed as inhibition of biofilm formation at 25 degC after 24 hrs. The class given is functional, organism-based, Salmonella enterica subsp. enterica serovar Typhimurium. The note with it: Salmonella enterica, ATCC 14028, 24 h.
As to `CCCCCCCC[n+]1c(-c2ccc(F)c(F)c2)cn2cccnc21.[O-][Cl+3]([O-])([O-])[O-]`, the half-maximal inhibitory concentration (IC50) is 3.8 µM.
As to `Nc1ncc(-c2ccc(Cl)cc2)n1C1CCCCCCC1`, the half-maximal inhibitory concentration (IC50) is 12.9 µM.
As to `Nc1nc(-c2ccc(F)cc2)c(C(=O)Nc2ccccc2)[nH]1`, the IC50 amounted to 182 µM.
Same read-out and setting: with `CCCCCCCCCCCCCn1c(-c2ccccc2)cnc1N` the figure was 6 µM; with `CCCCCCCCCCCn1c(-c2ccc(Cl)cc2)cnc1N`, 4.1 µM.
Turning to `CCCCCCCCCCn1c(-c2ccccc2)cnc1N`, the half-maximal inhibitory concentration (IC50) stood at 6.1 µM.
Same read-out and setting: with `CCCCCCCCCCn1c(-c2ccc(Cl)cc2)cnc1N` the figure was 4.1 µM; with `CCCCCCCCn1c(-c2cccc3ccccc23)cnc1N`, 6.6 µM; with `Nc1nc(-c2ccccc2)c(-c2ccc(C(F)(F)F)cc2)[nH]1`, 29.2 µM.
On the same count and under the same terms, with `CCCCCCCCCCCn1c(-c2ccccc2)cnc1N` the figure was 7.2 µM; with `CCCCCCCCCn1c(-c2ccc(Cl)cc2)cnc1N`, 4 µM; with `CCCCCCCCCCCCn1c(-c2ccc(Cl)cc2)cnc1N`, 6.2 µM.
The same measure, in the same setting: with `CCCCCCCCn1c(-c2ccc(-c3ccccc3)cc2)cnc1N` the figure was 3.3 µM; with `CCCCCCCCn1c(-c2ccc(Cl)c(Cl)c2)cnc1N`, 3.7 µM.
In the case of `CCCCCCCC[n+]1c(-c2ccc(-c3ccc(-c4ccccc4)cc3)cc2)cn2cccnc21.[O-][Cl+3]([O-])([O-])[O-]`, the IC50 is 5 µM.

A further assay has as its system Salmonella typhimurium. As to the kind of experiment: Antimicrobial activity against Salmonella Typhimurium ATCC 14028 assessed as inhibition of planktonic growth at 400 uM at 25 degC after 24 hrs. The format is functional, organism-based. The note with it: Salmonella enterica subsp. enterica serovar Typhimurium.
In the case of `Nc1nc(-c2ccc(F)cc2)c(C(=O)Nc2ccccc2)[nH]1`, the inhibition result was “Active”.
Still for that read-out and setting: with `Nc1nc(-c2ccccc2)c(-c2ccc(C(F)(F)F)cc2)[nH]1` the entry was “Active”.

In another assay the test system is Pseudomonas aeruginosa. In words: Antibiofilm activity in Pseudomonas aeruginosa assessed as inhibition of biofilm formation at 25 degC after 24 hrs.
Conditions: not given
The format is functional, organism-based.
For the molecule `CCCCCCCC[n+]1c(-c2ccc(F)c(F)c2)cn2cccnc21.[O-][Cl+3]([O-])([O-])[O-]`, the IC50 was 12.7 µM.
On to `Nc1ncc(-c2ccc(Cl)cc2)n1C1CCCCCCC1`, for which the IC50 came out at 48.7 µM.
The same measure, in the same setting: as for `CCCCCCCCCCCCCn1c(-c2ccccc2)cnc1N`, the figure is 27.3 µM; as for `CCCCCCCCCCCn1c(-c2ccc(Cl)cc2)cnc1N`, 44 µM.
On the same count and under the same terms, as for `CCCCCCCCCCn1c(-c2ccccc2)cnc1N`, the figure is 15 µM.
Take `CCCCCCCCCCn1c(-c2ccc(Cl)cc2)cnc1N`: the IC50 stood at 22.3 µM.
For `CCCCCCCCn1c(-c2cccc3ccccc23)cnc1N`, the IC50 was found to be 17.6 µM.
The same measure, in the same setting: with `CCCCCCCCCCCn1c(-c2ccccc2)cnc1N` the figure was 16.3 µM.
As for `CCCCCCCCCn1c(-c2ccc(Cl)cc2)cnc1N`, the IC50 came out at 8 µM.
The same measure, in the same setting: as for `CCCCCCCCCCCCn1c(-c2ccc(Cl)cc2)cnc1N`, the figure is 49.7 µM; as for `CCCCCCCCn1c(-c2ccc(-c3ccccc3)cc2)cnc1N`, 8.9 µM.

The test system of the next assay is Pseudomonas aeruginosa. As to the kind of experiment: Antimicrobial activity against Pseudomonas aeruginosa assessed as inhibition of planktonic growth at 40 uM at 25 degC after 24 hrs. The format is functional, organism-based.
Conditions: not given
As for `CCCCCCCC[n+]1c(-c2ccc(F)c(F)c2)cn2cccnc21.[O-][Cl+3]([O-])([O-])[O-]`, the inhibition result is “Active”.
As for `CCCCCCCCCCCCCn1c(-c2ccccc2)cnc1N`, the inhibition result is “inactive”.
As for `CCCCCCCCCCn1c(-c2ccc(Cl)cc2)cnc1N`, the inhibition result was “inactive”.

In a further assay the test system is Pseudomonas aeruginosa. As to the kind of experiment: Antimicrobial activity against Pseudomonas aeruginosa assessed as inhibition of planktonic growth at 10 uM at 25 degC after 24 hrs. The class given is functional, organism-based.
Conditions: not given
`CCCCCCCC[n+]1c(-c2ccc(F)c(F)c2)cn2cccnc21.[O-][Cl+3]([O-])([O-])[O-]`: the inhibition entry was “Active”.
Turning to `CCCCCCCCCCn1c(-c2ccccc2)cnc1N`, the inhibition entry was “inactive”.
As for `CCCCCCCCn1c(-c2cccc3ccccc23)cnc1N`, the inhibition entry was “inactive”.
For `CCCCCCCCCCCn1c(-c2ccccc2)cnc1N`, the inhibition result was “inactive”.
On the same count and under the same terms, with `CCCCCCCCCn1c(-c2ccc(Cl)cc2)cnc1N` the entry was “inactive”.
Turning to `CCCCCCCCn1c(-c2ccc(-c3ccccc3)cc2)cnc1N`, the inhibition result was “inactive”.
